Key:
gut microbiome [1] = test: Non pH-controlled anaerobic faecal cultures, gas production; type: cell-based; settings: 6 donors, FIG. 1
Experimental: Non pH-controlled, anaerobic, faecal cultures were investigated to evaluate the rate of gas production and cumulative gas production over 24 h in the presence of each test substrate.
(§1) All carbohydrates were tested in parallel, using the same faecal sample from a healthy donor. Fermentations were repeated using the faecal samples of each of 6 donors. Faeces in the absence of test substrate were used as the negative control in each run.

gut microbiome [2] = test: pH-controlled anaerobic faecal cultures, organic acid production; type: cell-based; settings: FIG. 3
Experimental: pH-controlled, anaerobic, faecal cultures were carried out to evaluate the impact of each test carbohydrate on gut microbiome composition and activity (organic acid production). The test carbohydrates were as follows: Inulin, Fructooligosaccharides (FOS), Xylooligosaccharides (XOS), gentiooligosaccharides (GeOS) and cellobiose.
as §1

## O=C[C@H](O)[C@@H](O)[C@H](O[C@@H]1O[C@H](CO)[C@@H](O)[C@H](O)[C@H]1O)[C@H](O)CO [Cellobiose, cellobiose]
Gut microbiome [1]
  rate of gas production: significantly higher compared to all test substrates
Gut microbiome [2]
  lactate production / accumulation: high levels

From patent publication US20260014178A1, “COMPOSITIONS AND USES THEREOF” (Optibiotix Limited, priority 2022, published 2026)
